Assay results taken from US8034382B2, “Preparation method for biodegradable micro-particles containing drugs” (The Board of Trustees of the University of Arkansas, priority 2008, dated 2011).
Values belong to the compound of their own block, whether it stands above or below them.

Legend:
[1] = Release kinetics of leuprolide acetate from PLGA microparticles (UV absorption of supernatant); type: physicochemical
Method: The release kinetics of leuprolide acetate from the PLGA microparticles prepared as described herein was determined and the results are shown in FIG. 1. Concentration of drug in the supernatant was measured by ultraviolet absorption. […] Initial burst release occurs due to the fast dissolution of peptide located at the microparticle surface followed by a time lag of 4-5 days. […] During the middle portion of the curve, peptide release occurs at a near constant rate.
FIG. 2 compares the release curve of FIG. 1 for 10% RG 502H with a published release curve for leuprolide acetate from microparticles formed by conventional oil-in-water emulsion with poly(vinyl alcohol) as emulsifier (D'Souza et al., 2005, AAPS PHARM. Sci. Tech. 6(4), E553).

[2] = Encapsulation efficiency of drug in PLA/PLGA microparticles prepared with hydroxyapatite gel (UV absorption); type: physicochemical; settings: for pH of aqueous suspension giving best encapsulation efficiency: hydroxyapatite gel suspension, PLA/PLGA polymers
Method: Leuprolide acetate and poly(lactic acid-co-glycolic acid) (PLGA) RG502H or PLA R202H were dissolved in a 24/76 (v/v) methanol/dichloromethane mixture at a concentration of 20% polymer and 10% leuprolide (w/v) to prepare the polymer-drug solution. An aqueous suspension of hyroxyapatite was prepared by dissolving 6 g of CaO in 400 ml water. Then phosphoric acid was added to adjust the pH of the aqueous suspension to between 9.0 and 10.0. Hydroxyapatite gel was formed in situ in the aqueous suspension under these conditions by the reaction 10 CaO+6 H3PO4=Ca10(PO4)6(OH)2+8 H2O. The drug/polymer solution (2 or 3 ml) was dispersed into the aqueous suspension medium. The dispersion was initially homogenized by a high-shear mixer at 5,000 or more rpm for 5 minutes. The solvents were then evaporated by stirring at 600 rpm for 1 hour or longer. Then concentrated HCl was added slowly until the hydroxyapatite dissolved and the suspension cleared. Hydroxyapatite is dissolved by the reaction Ca10(PO4)6(OH)2+20 HCl=10 CaCl2+6 H3PO4+2 H2O. The solidified microparticles were recovered by centrifugation and filtration.
Encapsulation efficiency refers to the mass of drug recovered in microparticles divided by the starting mass of drug in the polymer-drug phase. To quantify drug in microparticles, the microparticles were first dissolved in an ethanol/dichloroethane (28/72 v/v) mixture. The drug content of the solution was then measured by ultraviolet absorption.
In other experiments, the pH of the suspending medium was varied. […] Small anionic and cationic small molecule drugs were also tested. […] Verapamil HCl and nicardipine HCl were the small-molecule amine-containing drugs tested. Piroxicam, […], and salicylic acid were the small molecule anionic drugs tested.

- Release curve compared with published curve for conventional o/w emulsion (poly(vinyl alcohol)) microparticles ([1]; 10% RG 502H, FIG. 2, versus D'Souza et al. 2005): nearly identical
- Release profile (shape) ([1]; PLGA microparticles, FIG. 1): typical tri-phase
- Time lag after initial burst release ([1]; PLGA microparticles, FIG. 1): 4 to 5 days
- Encapsulation efficiency ([2]; pH of the suspending medium 7.0): 90%
- Encapsulation efficiency ([2]; pH of the suspending medium pH 9.0 to pH 10.0, hydroxyapatite gel): ≥ 95%
Structure (SMILES): CCNC(=O)[C@@H]1CCCN1C(=O)[C@H](CCCNC(=N)N)NC(=O)[C@H](CC(C)C)NC(=O)[C@@H](CC(C)C)NC(=O)[C@H](Cc1ccc(O)cc1)NC(=O)[C@H](CO)NC(=O)[C@H](Cc1c[nH]c2ccccc12)NC(=O)[C@H](Cc1c[nH]cn1)NC(=O)[C@@H]1CCC(=O)N1 [leuprolide acetate, Leuprolide acetate]

- pH of aqueous suspension giving best encapsulation efficiency [2]: ~5.0
Structure (SMILES): COc1ccc2cc([C@H](C)C(=O)O)ccc2c1 [naproxen acid]

- pH of aqueous suspension giving best encapsulation efficiency [2]: ~5.0
Structure (SMILES): CN1C(C(=O)Nc2ccccn2)=C(O)c2ccccc2S1(=O)=O [piroxicam]

- pH of aqueous suspension giving best encapsulation efficiency [2]: ~5.0
Structure (SMILES): O=C(O)c1ccccc1O [salicylic acid]
